Experimental data as given in PMC4211326, “H-CRRETAWAC-OH, a Lead Structure for the Development of Radiotracer Targeting Integrin α 5 β 1?” (BioMed Research International, 2014).
Several values for one entry are separate records, joined by “and”; a condition that tells them apart may be missing. Identical values can stand only once. Like-named read-outs stand apart in the source and are kept apart here. Where a SMILES comes first, the peptide text is derived from it. Bridges are numbered along the chain shown (N, C = ends). The star is where a group is joined. Propanoyl(2-F) = CC(F)C(=O)*

What was measured:
[1] = target: T1, integrin α5β1 (Homo sapiens, UniProt P05556+P08648); assay: Isolated receptor binding assay, immobilised integrin, [125I]echistatin displacement; details: for Ki: immobilized integrin; for Suppression of the binding of [125I]echistatin to immobilised integrin α5β1: result in words
T1 construct: purchased Chemicon, Millipore
T1 sequence (P08648 42-894 limits assumed): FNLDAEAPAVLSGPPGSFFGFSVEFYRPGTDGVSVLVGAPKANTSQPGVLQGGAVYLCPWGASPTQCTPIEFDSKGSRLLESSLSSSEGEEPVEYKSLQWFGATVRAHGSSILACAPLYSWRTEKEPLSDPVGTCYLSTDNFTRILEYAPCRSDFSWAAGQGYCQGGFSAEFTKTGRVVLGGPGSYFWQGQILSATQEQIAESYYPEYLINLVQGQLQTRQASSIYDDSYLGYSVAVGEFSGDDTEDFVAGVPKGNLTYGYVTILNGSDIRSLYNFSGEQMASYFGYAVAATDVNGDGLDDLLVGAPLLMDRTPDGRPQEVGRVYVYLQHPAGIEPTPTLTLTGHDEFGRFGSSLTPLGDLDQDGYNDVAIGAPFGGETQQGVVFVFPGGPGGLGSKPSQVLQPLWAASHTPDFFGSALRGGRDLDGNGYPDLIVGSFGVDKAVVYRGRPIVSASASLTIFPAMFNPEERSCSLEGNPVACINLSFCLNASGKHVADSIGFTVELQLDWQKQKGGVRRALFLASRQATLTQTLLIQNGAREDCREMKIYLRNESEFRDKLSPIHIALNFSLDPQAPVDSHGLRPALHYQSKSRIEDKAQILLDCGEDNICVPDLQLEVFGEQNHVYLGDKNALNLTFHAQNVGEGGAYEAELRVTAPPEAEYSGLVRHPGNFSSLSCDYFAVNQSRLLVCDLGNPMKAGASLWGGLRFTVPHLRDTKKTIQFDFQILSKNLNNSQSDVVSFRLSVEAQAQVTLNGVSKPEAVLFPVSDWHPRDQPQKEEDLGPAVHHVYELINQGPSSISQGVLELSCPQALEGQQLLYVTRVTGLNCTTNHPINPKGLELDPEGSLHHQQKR
T1 sequence (P08648 895-1049 partner limits assumed): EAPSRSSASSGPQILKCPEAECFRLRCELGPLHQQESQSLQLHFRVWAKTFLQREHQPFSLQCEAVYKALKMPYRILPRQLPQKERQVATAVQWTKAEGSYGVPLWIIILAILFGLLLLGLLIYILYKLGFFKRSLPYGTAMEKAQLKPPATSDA
T1 sequence (P05556 21-798): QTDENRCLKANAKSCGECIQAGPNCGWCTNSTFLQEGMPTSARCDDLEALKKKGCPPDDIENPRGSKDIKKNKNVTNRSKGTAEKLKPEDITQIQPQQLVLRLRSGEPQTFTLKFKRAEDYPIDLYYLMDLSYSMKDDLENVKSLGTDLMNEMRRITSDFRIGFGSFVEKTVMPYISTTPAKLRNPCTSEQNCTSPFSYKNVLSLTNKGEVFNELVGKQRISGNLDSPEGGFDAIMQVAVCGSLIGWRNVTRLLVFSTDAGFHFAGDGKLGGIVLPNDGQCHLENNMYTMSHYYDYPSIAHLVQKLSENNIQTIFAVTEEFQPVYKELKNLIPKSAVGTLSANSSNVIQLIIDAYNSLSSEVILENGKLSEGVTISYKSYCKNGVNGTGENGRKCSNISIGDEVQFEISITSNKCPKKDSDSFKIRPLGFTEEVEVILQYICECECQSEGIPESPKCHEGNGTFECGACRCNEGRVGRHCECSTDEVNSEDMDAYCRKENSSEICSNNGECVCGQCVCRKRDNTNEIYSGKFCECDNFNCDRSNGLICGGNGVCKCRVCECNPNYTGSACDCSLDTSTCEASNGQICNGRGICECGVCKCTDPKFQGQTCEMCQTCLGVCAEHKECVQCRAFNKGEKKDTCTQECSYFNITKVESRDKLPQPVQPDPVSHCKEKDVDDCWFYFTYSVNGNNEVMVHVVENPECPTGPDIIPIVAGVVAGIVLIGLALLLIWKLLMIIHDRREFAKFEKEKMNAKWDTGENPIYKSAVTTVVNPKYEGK
Method: (§1) The receptor binding assay was performed following the procedure described previously. In brief, commercially available purifiedα v β 3,α 5 β 1, orα IIb β 3 (Triton X-100 formulation, Chemicon, Millipore) was diluted in coating buffer (25 mM Tris-HCl, 150 mM NaCl, 1 mM CaCl2, 0.5 mM MgCl2, 1 mM MnCl2, pH 7.4), and an aliquot of 100 μL/well, corresponding to 25 ng/wellα v β 3, 100 ng/wellα 5 β 1, or 50 ng/wellα IIb β 3, was added to a 96-well microtiter plate (Maxisorb, Nunc, Wiesbaden, Germany) and incubated at 4°C overnight. The cells were incubated for two hours with blocking buffer (200 μL, coating buffer containing 1% (w/v) bovine serum albumin (BSA)) at room temperature. After washing twice with binding buffer (coating buffer with 0.1% (w/v) BSA) the cells were incubated in the presence of the competing ligand (90 μL, 0.5 pM to 500 nM echistatin; 0.05 nM to 50 μM peptide in binding buffer) with [^125I]echistatin (0.37 kBq/well, 10 μL, 0.05 nM; PerkinElmer, Germany) for 3 h. Afterwards, the cells were washed three times with binding buffer, and bound [^125I]echistatin was solubilised with warm NaOH (2 M). The radioactivity in the resulting samples was measured by a γ-counter. Each data point represents the mean from three cells. All measurements were repeated at least once. K i values were calculated using the software program GraphPad PRISM (GraphPad Software Inc., CA, USA).
(§2) The binding affinities were determined using isolated receptor binding assays where the different integrins (α 5 β 1,α v β 3, andα IIb β 3) were immobilised and [^125I]echistatin was replaced by increasing amounts of the different peptides tested. […] Introduction of the (RS)-2-fluoropropionic acid at the N-terminus of the peptide reduced the binding affinity by a factor of approx. 10.

[2] = target: T2, integrin αIIbβ3 (Homo sapiens, UniProt P05106+P08514); assay: as above
T2 construct: purchased Chemicon, Millipore
T2 sequence (P08514 32-887 limits assumed): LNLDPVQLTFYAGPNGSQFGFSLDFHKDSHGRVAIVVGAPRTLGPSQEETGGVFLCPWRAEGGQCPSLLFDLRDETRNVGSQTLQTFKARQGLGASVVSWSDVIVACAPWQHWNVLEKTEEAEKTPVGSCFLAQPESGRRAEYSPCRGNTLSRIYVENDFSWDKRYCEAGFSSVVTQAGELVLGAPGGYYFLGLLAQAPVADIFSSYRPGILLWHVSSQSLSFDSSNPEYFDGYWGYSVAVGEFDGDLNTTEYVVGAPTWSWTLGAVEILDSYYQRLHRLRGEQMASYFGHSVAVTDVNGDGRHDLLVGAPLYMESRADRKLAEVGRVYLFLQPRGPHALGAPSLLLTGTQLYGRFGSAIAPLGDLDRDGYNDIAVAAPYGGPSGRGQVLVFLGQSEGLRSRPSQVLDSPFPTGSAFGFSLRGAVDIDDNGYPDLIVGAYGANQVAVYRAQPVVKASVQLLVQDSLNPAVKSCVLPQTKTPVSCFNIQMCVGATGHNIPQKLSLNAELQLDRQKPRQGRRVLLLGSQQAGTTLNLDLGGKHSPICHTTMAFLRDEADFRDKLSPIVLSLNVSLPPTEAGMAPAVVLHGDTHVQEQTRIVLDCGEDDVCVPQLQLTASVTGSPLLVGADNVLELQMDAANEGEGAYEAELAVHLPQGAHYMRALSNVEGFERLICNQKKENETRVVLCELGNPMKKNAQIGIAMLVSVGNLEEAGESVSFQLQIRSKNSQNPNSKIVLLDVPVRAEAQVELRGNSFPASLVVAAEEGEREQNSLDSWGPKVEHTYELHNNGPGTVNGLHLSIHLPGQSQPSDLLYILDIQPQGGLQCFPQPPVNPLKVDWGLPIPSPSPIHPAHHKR
T2 sequence (P08514 891-1039 partner limits assumed): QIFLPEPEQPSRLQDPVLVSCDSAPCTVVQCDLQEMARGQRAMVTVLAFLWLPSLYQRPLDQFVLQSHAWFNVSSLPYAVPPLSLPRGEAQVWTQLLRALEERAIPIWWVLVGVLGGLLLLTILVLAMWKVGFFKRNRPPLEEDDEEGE
T2 sequence (P05106 27-788): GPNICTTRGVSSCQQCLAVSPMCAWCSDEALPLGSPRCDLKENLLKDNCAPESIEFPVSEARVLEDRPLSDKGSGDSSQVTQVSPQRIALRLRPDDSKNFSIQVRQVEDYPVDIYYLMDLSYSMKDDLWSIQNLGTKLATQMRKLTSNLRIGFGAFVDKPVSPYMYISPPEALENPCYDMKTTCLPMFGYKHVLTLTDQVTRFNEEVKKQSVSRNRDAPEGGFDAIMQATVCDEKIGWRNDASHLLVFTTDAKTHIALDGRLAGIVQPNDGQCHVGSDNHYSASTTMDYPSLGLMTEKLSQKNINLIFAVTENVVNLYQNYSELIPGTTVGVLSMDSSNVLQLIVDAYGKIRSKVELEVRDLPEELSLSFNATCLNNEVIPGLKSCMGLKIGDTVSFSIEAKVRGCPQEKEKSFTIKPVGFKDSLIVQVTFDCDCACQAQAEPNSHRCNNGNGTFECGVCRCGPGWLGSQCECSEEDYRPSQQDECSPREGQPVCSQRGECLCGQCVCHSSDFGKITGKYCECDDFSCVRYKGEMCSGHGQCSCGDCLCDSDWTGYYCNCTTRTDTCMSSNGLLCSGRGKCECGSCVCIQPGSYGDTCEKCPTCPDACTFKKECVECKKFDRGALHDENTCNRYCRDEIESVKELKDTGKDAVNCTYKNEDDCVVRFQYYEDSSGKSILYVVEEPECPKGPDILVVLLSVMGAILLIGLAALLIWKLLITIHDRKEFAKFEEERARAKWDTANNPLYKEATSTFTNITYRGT
Method: as §1, §2

[3] = target: T3, integrin αvβ3 (Homo sapiens, UniProt P05106+P06756); assay: as above
T3 construct: purchased Chemicon, Millipore
T3 sequence (P06756 31-889 limits assumed): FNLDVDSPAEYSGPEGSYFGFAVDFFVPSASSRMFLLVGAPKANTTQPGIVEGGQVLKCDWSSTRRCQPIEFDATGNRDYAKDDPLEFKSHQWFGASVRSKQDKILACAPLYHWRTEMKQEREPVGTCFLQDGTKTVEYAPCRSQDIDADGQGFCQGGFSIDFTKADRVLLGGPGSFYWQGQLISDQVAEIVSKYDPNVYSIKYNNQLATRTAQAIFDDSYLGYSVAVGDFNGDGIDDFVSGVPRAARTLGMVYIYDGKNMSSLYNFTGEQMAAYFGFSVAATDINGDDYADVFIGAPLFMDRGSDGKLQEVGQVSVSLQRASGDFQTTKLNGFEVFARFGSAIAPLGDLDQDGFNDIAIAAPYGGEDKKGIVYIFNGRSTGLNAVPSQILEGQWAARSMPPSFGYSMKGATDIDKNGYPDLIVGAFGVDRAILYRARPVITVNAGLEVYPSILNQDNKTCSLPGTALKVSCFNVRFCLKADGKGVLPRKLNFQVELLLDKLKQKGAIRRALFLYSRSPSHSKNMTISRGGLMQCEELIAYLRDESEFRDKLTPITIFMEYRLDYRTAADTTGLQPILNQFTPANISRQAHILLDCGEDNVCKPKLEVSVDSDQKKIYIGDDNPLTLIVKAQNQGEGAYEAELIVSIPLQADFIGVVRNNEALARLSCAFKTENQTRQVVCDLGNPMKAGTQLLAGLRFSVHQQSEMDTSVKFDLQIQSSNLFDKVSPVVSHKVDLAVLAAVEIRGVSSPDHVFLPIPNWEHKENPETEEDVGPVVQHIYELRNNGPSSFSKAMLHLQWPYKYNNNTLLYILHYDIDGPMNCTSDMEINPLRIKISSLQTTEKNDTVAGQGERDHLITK
T3 sequence (P06756 891-1048 partner limits assumed): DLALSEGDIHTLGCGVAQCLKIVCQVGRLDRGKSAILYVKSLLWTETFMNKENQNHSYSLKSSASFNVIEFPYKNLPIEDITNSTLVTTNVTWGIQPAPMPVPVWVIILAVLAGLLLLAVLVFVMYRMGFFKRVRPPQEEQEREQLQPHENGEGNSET
T3 sequence (P05106 27-788): as the sequence (P05106 27-788) above
Method: as §1, §2

[4] = system: α5β1; parameters: method as in PMID 7507494; details: read-out: IC50, inhibition of binding of fibronectin to α5β1; cited from earlier work
[5] = format: in vitro ADME, human
Method: The protein binding studies were carried out by incubating [^18F]FProp-C^*RRETAWAC^*-OH (1 MBq/mL) in fresh human serum at 37°C for different time points (30, 60, and 120 min). After incubation, the solution was passed through a spin column (MicroSpin G-50 columns; GE Healthcare, Buckinghamshire, United Kingdom). Protein binding was determined by measuring the activity fixed on the column and the activity in the eluate in the gamma counter. As control [^18F]FProp-C^*RRETAWAC^*-OH was incubated at the same concentration for 60 min in PBS instead of serum.

[6] = format: in vitro ADME, human; remark: listed apart in the source
Method: For stability studies, [^18F]FProp-C^*RRETAWAC^*-OH (approx. 2 MBq/mL) was incubated in human serum for 30, 60, and 120 min at 37°C. At each time point, aliquots of 100 μL were taken and proteins were precipitated using 150 μL acetonitrile. The suspension was treated for 5 min with ultrasound and subsequently centrifuged. The supernatant was diluted with water and analysed by HPLC.

[7] = system: DU145 human prostate carcinoma cells (αvβ3-negative and α5β1-positive); assay: Cell uptake study with/without blocking by H-C*RRETAWAC*-OH; format: cell-based; details: 37°C, with or without excess H-C*RRETAWAC*-OH
Method: (§3) M21 (α v β 3-positive andα 5 β 1-negative), […] (α v β 3-negative andα 5 β 1-positive), and M21L (both receptors negative) cells were maintained in Gibco RPMI 1640 (Life Technologies, Carlsbad, CA) containing 1% glutamine, 10% (v/v) fetal calf serum (FCS), and 1% penicillin/streptomycin/glutamine and grown in tissue culture flasks (Cellstar; Greiner Bio-One, Kremsmuenster, Austria) at 37°C in a humidified atmosphere of 5% CO2 (v/v). For cell uptake studies, cells were trypsinised, washed twice with binding buffer (10 mM HEPES (pH 7.4), 150 mM NaCl, 2 mM MnCl2, 0.1% BSA), and aliquots of 0.9 mL containing 2 × 10^6 cells were transferred to Eppendorf tubes. After addition of 50 μL radiotracer (>100,000 cpm), cells were incubated at 37°C for 120 min in triplicate with either 50 μL PBS with 0.5% BSA (unblocked) or 50 μL of 50 μM H-C^*RRETAWAC^*-OH in PBS/0.5% BSA (blocked), respectively.
(§4) Incubation was stopped by centrifugation (2 min, 1000 rpm); medium was removed and cells were washed twice with 1 mL ice-cold binding buffer. […] Cells were lysed by treatment in 1 N NaOH and […] radioactivity was collected (internalised radioligand fraction). Protein content in the NaOH fraction was determined using spectrophotometric determination with Bradford reagent (Sigma Aldrich, Vienna, Austria). Internalised radioactivity was expressed as percentage of total activity per mg protein.

[8] = system: M21-L human melanoma cells (both receptors negative); assay: as above; format: cell-based; details: 37°C, with or without excess H-C*RRETAWAC*-OH
Method: as §3, §4

[9] = Binding affinity (Ki) α5β1, average and standard deviation of the mean, or bound with n = 2, 125I-echistatin
[10] = Binding affinity (Ki) α5β1, single determinations, 125I-echistatin as radioligand
[11] = average and standard deviation of the mean, or bound with n = 2, 125I-echistatin, read-out: Binding affinity (Ki) α5β1
[12] = single determinations, 125I-echistatin as radioligand, read-out: Binding affinity (Ki) α5β1

Row | Compound | Ki [1, 9] | Ki [1, 10] | Suppression of the binding of [125I]echistatin to immobilised integrin α5β1 [1] | Ki [1, 11] | Ki [1, 12] | also measured
1 | CC(F)C(=O)N[C@H]1CSSC[C@@H](C(=O)O)NC(=O)[C@H](C)NC(=O)[C@H](Cc2c[nH]c3ccccc23)NC(=O)[C@H](C)NC(=O)[C@H]([C@@H](C)O)NC(=O)[C@H](CCC(=O)O)NC(=O)[C@H](CCCNC(=N)N)NC(=O)[C@H](CCCNC(=N)N)NC1=O (some centres unmarked) [FProp-C∗RRETAWAC∗-OH (2)] ({Propanoyl(2-F)}-CRRETAWAC-OH; disulfide 1-9) | 77 ± 50 nM | 127 nM and 26 nM |  |  |  | Ki ([2]; read-out: Binding affinity (Ki) αIIbβ3, immobilized integrin, 125I-echistatin as radioligand): > 50000 nM; Ki ([3]; read-out: Binding affinity (Ki) αvβ3, immobilized integrin, 125I-echistatin as radioligand): > 50000 nM
2 | FProp-C^*RRETAWAC^*-OH: non-radioactive reference compound, N-terminal (RS)-2-fluoropropionyl conjugate of the lead peptide ({(RS)‑2‑fluoropropionyl}-CRRETAWAC-OH; disulfide N-9) |  |  | fully suppress |  |  | 
3 | C[C@@H]1NC(=O)[C@H](Cc2c[nH]c3ccccc23)NC(=O)[C@H](C)NC(=O)[C@H]([C@@H](C)O)NC(=O)[C@H](CCC(=O)O)NC(=O)[C@H](C)NC(=O)[C@H](CCCNC(=N)N)NC(=O)[C@@H](N)CSSC[C@@H](C(=O)O)NC1=O [H-C∗RAETAWAC∗-OH] (H-CRAETAWAC-OH; disulfide 1-9) |  |  |  | 16 ± 1 nM | 17 nM and 15 nM | 
4 | C[C@@H]1NC(=O)[C@H](Cc2c[nH]c3ccccc23)NC(=O)[C@H](C)NC(=O)[C@H]([C@@H](C)O)NC(=O)[C@H](CCC(=O)O)NC(=O)[C@H](CCCNC(=N)N)NC(=O)[C@H](CCCNC(=N)N)NC(=O)[C@@H](N)CSSC[C@@H](C(=O)O)NC1=O [H-C∗RRETAWAC∗-OH, H-Cys^*-Arg-Arg-Glu-Thr-Ala-Trp-Ala-Cys^*-OH] (H-CRRETAWAC-OH; disulfide 1-9) |  |  | fully suppress | 5.3 ± 4.1 nM | 10 nM and 3.9 nM and 2.1 nM | Ki ([3]; immobilized integrin, 125I-echistatin as radioligand, read-out: Binding affinity (Ki) αvβ3): > 50000 nM; IC50 [4]: 8 nM
5 | [^18F]FProp-Cys^*-Arg-Arg-Glu-Thr-Ala-Trp-Ala-Cys^*-OH ({(18F)fluoropropionyl}-CRRETAWAC-OH; disulfide N-9) [[^18F]FProp-C^*RRETAWAC^*-OH, 18F-labelled radiopeptide tracer for integrin α5β1] |  |  |  |  |  | Protein bound activity in human serum [5]: below 6 % of the total incubated activity; Serum stability (percentage printed in Figure 2) [6]: 97.1%; Specific binding and internalisation (cell uptake) [7]: specific binding and internalisation; Specific uptake (cell uptake) [8]: no specific uptake
6 | CC(F)C(=O)N[C@H]1CSSC[C@@H](C(=O)O)NC(=O)[C@H](C)NC(=O)[C@H](Cc2c[nH]c3ccccc23)NC(=O)[C@H](C)NC(=O)[C@H]([C@@H](C)O)NC(=O)[C@H](CCC(=O)O)NC(=O)[C@H](CCCNC(=N)N)NC(=O)[C@H](CCCNC(=N)N)NC1=O (some centres unmarked) [FProp-C∗RRETAWAC∗-OH (1)] ({Propanoyl(2-F)}-CRRETAWAC-OH; disulfide 1-9) | 44 ± 3 nM | 41 nM and 47 nM |  |  |  | Ki [2]: > 50000 nM; Ki [3]: > 50000 nM
